Measured values from article PMC3501516, “Anti-Diabetic Efficacy and Impact on Amino Acid Metabolism of GRA1, a Novel Small-Molecule Glucagon Receptor Antagonist” (PLoS ONE, 2012).
Marks after values point to notes of the source that are not given here.

Assays:
[1] = test system: humans; set-up: method as in earlier work; details: clinical studies in humans, MK-0893 combined with the DPP-4 inhibitor sitagliptin; cited from earlier work
[2] = test system: hGCGR HFD/STZ mice; assay: Antihyperglycemic efficacy in hGCGR HFD/STZ mice (acute, chronic, combination with des-fluoro-sitagliptin); format: in vivo, hGCGR mouse; details: GRA1 10 mg/kg, Des-F-sita 200 mg/kg
Source text: The present study made use of a line of hGCGR-expressing mouse (“hGCGR mouse”) generated previously by substituting the hGCGR gene for the mouse GCGR gene. These mice were crossed with C57BL/6J.ob/+ mice (Jackson Laboratories, Bar Harbor, ME) to obtain an hGCGR.ob/+ mouse line. The hGCGR.ob/+ mice were then intercrossed to obtain hGCGR.ob/ob, hGCGR.ob/+, and hGCGR.+/+ mice (with the hGCGR.ob/+ and hGCGR.+/+ mice serving as littermate controls). […] obese (DIO) hGCGR mice were generated by maintaining hGCGR mice on a high-fat diet (HFD) in which 45–60% of calories were in fat (Product S3282, Bio-Serv, Frenchtown, NJ). High-fat-diet-streptozotocin-treated (HFD/STZ) diabetic mice were generated in-house as previously described.
Acute glucose lowering was studied in non-fasted hGCGR.ob/ob mice and HFD/STZ mice administered single doses p.o. of 1, 3 and 10 mg/kg GRA1 in 10 mL/kg 0.5% aqueous methylcellulose. Animals were fasted during the interval between dosing and the final blood glucose measurement. Glucose was measured in blood from tail bleeds using a OneTouch glucometer. In the experiments with hGCGR HFD/STZ mice, treatment groups were matched with respect to body weight and blood glucose levels.
Animals were dosed chronically with GRA1 and the DPP-4 inhibitor des-fluoro-sitagliptin by administering these agents as food admixtures. The admixtures were prepared in-house and by Research Diets (New Brunswick, NJ), with drug concentrations adjusted weekly on the basis of average food consumption and animal weight to provide targeted daily doses. In the GRA1 experiments, the targeted doses were 3, 6, 10, and 30 mg/kg•day. In des-fluoro-sitagliptin experiments, the targeted dose was 200 mg/kg•day, a relatively high amount necessary because this compound has a half-life in rodents of 1–2 h.
Plasma glucagon and active GLP-1 were measured using commercial ELISA kits (Linco Research Immunoassay, St. Charles, MO). […] Plasma insulin was determined by ELISA with a commercial kit (ALPCO Diagnostics, Windham, NH). Plasma concentrations of glycated hemoglobin A1c (HbA1c) were measured using a Micromat II test kit from Bio-Rad Laboratories (Hercules, CA). Total cholesterol, low-density lipoprotein cholesterol (LDL-c) and non-LDL-c, and aspartate aminotransferase were measured using a Roche P Modular Clinical Chemistry analyzer (Indianapolis, IN).
Figure 5 GRA1 lowers glucose in hGCGR HFD/STZ mice and further enhances the efficacy of a DPP-4 inhibitor. (A) Mean (±SEM) blood glucose hGCGR HFD/STZ mice treated with a single dose of 1, 3, or 10 mg/kg GRA1. (B) Non-fasted blood glucose concentrations in hGCGR HFD/STZ mice treated for 6 weeks with 10 mg/kg·day GRA1, 200 mg/kg·day des-fluoro-sitagliptin (des-F-sita), or the two agents in combination. (Additional data from this study are in Table 4.) *p<0.05, **p<0.01, and ***p<0.001 versus HFD/STZ controls; ^#non-significant (p>0.05) versus non-STZ controls; n = 8–15 animals per group.

[3] = set-up: method as in PMID 16731832; details: cited from earlier work

| SMILES | Glucose-lowering efficacy of combination with sitagliptin [1] | HbA1c ([2]; 5 weeks of treatment, control diet 6.1±0.4) [%] | 6-h fasting blood glucose ([2]; 5 weeks of treatment, control diet 323±33) [mg/dL] | Liver Triglyceride ([2]; 6 weeks, necropsy tissue, control diet 143±10) | Free fatty acid ([2]; 6 weeks, terminal plasma, control diet 1.4±0.2) [mM] | Active GLP-1 ([2]; 6 weeks, terminal plasma, control diet 2.5±0.1) [pM] | Inactive GLP-1 ([2]; 6 weeks, terminal plasma, control diet 8.1±1.1) | Plasma glucagon ([2]; 6 weeks, terminal plasma, control diet 133±21) [pg/mL] | Triglyceride ([2]; 6 weeks, terminal plasma, control diet 184±26) [mg/dL] | Half-life in rodents [3] [h] |
| --- | --- | --- | --- | --- | --- | --- | --- | --- | --- | --- |
| COc1ccc2cc(-c3cc(-c4cc(Cl)cc(Cl)c4)nn3[C@@H](C)c3ccc(C(=O)NCCC(=O)O)cc3)ccc2c1 [MK-0893, N-[(4-{(1S)-1-[3-(3,5-Dichlorophenyl)-5-(6-methoxynaphthalen-2-yl)-1H-pyrazol-1-yl]ethyl}phenyl)carbonyl]-beta-alanine] | did not result in significant additional glucose-lowering efficacy | – | – | – | – | – | – | – | – | – |
| N[C@@H](CC(=O)N1CCn2c(nnc2C(F)(F)F)C1)Cc1cc(F)ccc1F [Des-F-sita, 7-[(3R)-3-amino-1-oxo-4-(2,5-difluorophenyl)butyl]-5,6,7,8-tetrahydro-3-(trifluoromethyl)-1,2,4-triazolo[4,3-α]pyrazine, reference compound] | – | 5.0±0.4 | 283 ± 34 | 94±15* µg/mg | 1.1 ± 0.1 | 2.9 ± 0.2 | 3.2±0.2*** pM | 87 ± 4 | 161 ± 15 | 1 to 2 |
